These compounds were tested against T1, HIV Protease (Human immunodeficiency virus type 1 group M subtype B, UniProt P04585) (assay: Inhibition of microbial expressed HIV protease (peptide substrate cleavage, HPLC of products)). Conditions: protease expressed in Eschericia coli, pH 5.5, 30° C., 1 hour.
T1 construct: the protease expressed in Eschericia coli; made in house; host or cells: Escherichia coli
Type: biochemical
Experimental: Assay for Inhibition of Microbial Expressed HIV Protease
Inhibition studies of the reaction of the protease expressed in Eschericia coli with a peptide substrate [Val-Ser-Gln-Asn-(betanapthyl)Ala-Pro-Ile-Val, 0.5 mg/mL at the time the reaction is initiated] were in 50 mM Na acetate, pH 5.5, at 30° C. for 1 hour. Various concentrations of inhibitor in 1.0 μl DMSO were added to 25 μl of the peptide solution in water. The reaction is initiated by the addition of 15 μl of 0.33 nM protease (0.11 ng) in a solution of 0.133M Na acetate pH 5.5 and 0.1% bovine serum albumin. The reaction was quenched with 160 μl of 5% phosphoric acid. Products of the reaction were separated by HPLC (VYDAC wide pore 5 cm C-18 reverse phase, acetonitrile gradient, 0.1% phosphoric acid). The extent of inhibition of the reaction was determined from the peak heights of the products.
`O=C(N[C@H]1c2ccccc2C[C@H]1O)[C@H](Cc1ccccc1)C[C@H](O)CNC(=O)[C@H]1[C@H](C(=O)NCCc2ccccc2)[C@@H]2C=C[C@H]1C2` [A] gave an IC50 of 0.055 nM.
With `CC(C)(C)NC(=O)[C@H]1[C@H](C(=O)NC[C@@H](O)C[C@@H](Cc2ccccc2)C(=O)N[C@H]2c3ccccc3C[C@H]2O)[C@H]2C=C[C@@H]1C2` [B] the IC50 was 82.8 nM.
In the case of `O=C(N[C@H]1c2ccccc2C[C@H]1O)[C@H](Cc1ccccc1)C[C@H](O)CNC(=O)[C@H]1[C@H](C(=O)N(Cc2ccccc2)Cc2ccccc2)[C@@H]2C=C[C@H]1C2` [C], the IC50 is reported as 0.025 nM.

Reference: patent US5811462A, “HIV Protease inhibitors useful for the treatment of AIDS” (Merck & Co., Inc., priority 1997, dated 1998)
